In PubChem BioAssay (NCI):
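Tested at 5 concentrations; 48 h exposure; 96-well plates; endpoints linearly interpolated, else capped at highest concentration. At the TGI there is no net growth.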

Assays:
Experiment in all cases: inhibition of tumour cell growth, NCI panel, 48 h
[1] = system: MDA-N
[2] = system: HCT-15 colon
[3] = system: MDA-MB-435
[4] = system: NCI-H23 lung
[5] = system: HS 578T breast
[6] = system: MCF7 breast
[7] = system: SK-MEL-5 melanoma
[8] = system: SF-268 CNS
[9] = system: U251 CNS
[10] = system: NCI-H522 lung
[11] = system: HOP-92 NSCLC
[12] = system: MDA-MB-231 breast
[13] = system: RXF 393 renal
[14] = system: COLO 205 colon
[15] = system: OVCAR-4 ovarian
[16] = system: IGROV1 ovarian
[17] = system: PC-3 prostate
[18] = system: HL-60(TB) leukemia
[19] = system: 786-0 renal
[20] = system: NCI/ADR-RES ovarian
[21] = system: A498 renal
[22] = system: HCC-2998 colon
[23] = system: UACC-257 melanoma
[24] = system: A549 NSCLC
[25] = system: KM12 colon
[26] = system: UACC-62 melanoma
[27] = system: OVCAR-5 ovarian
[28] = system: SK-MEL-2 melanoma
[29] = system: SW-620 colon
[30] = system: MALME-3M melanoma
[31] = system: EKVX NSCLC
[32] = system: SR leukemia
[33] = system: M14 melanoma
[34] = system: TK-10 renal
[35] = system: BT-549 breast
[36] = system: SNB-19 CNS
[37] = system: SF-539 CNS
[38] = system: NCI-H226 lung
[39] = system: CAKI-1 renal
[40] = system: RPMI-8226 leukemia
[41] = system: ACHN renal
[42] = system: SK-MEL-28 melanoma
[43] = system: HT29 colon
[44] = system: MOLT-4 leukemia
[45] = system: K-562 leukemia
[46] = system: HOP-62 NSCLC
[47] = system: SNB-75 CNS
[48] = system: OVCAR-8 ovarian
[49] = system: HCT-116 colon
[50] = system: UO-31 renal
[51] = system: CCRF-CEM leukemia
[52] = system: NCI-H460 lung
[53] = system: SK-OV-3 ovarian
[54] = system: SF-295 CNS
[55] = system: T-47D breast
[56] = system: LOX IMVI melanoma
[57] = system: DU-145 prostate
[58] = system: OVCAR-3 ovarian
[59] = system: SN12C renal

For `O=C(/C=C/c1cc(F)ccc1F)OCCc1ccccc1`, the TGI [1] was > 100 µM, the TGI [2] was > 100 µM and the TGI [3] was > 100 µM. For the same compound, the TGI [4] was > 100 µM, the TGI [5] was > 100 µM and the TGI [6] was > 100 µM. The TGI [7] was > 100 µM, the TGI [8] was > 100 µM and the TGI [9] was > 100 µM. The TGI [10] was > 100 µM, the TGI [11] was > 100 µM and the TGI [12] was > 100 µM. The TGI [13] was > 100 µM, the TGI [14] was > 100 µM and the TGI [15] was 47.4 µM. The TGI [16] was > 100 µM, the TGI [17] was > 100 µM and the TGI [18] was 79.9 µM. For the same compound, the TGI [19] was > 100 µM, the TGI [20] was > 100 µM and the TGI [21] was > 100 µM. The TGI [22] was > 100 µM, the TGI [23] was > 100 µM and the TGI [24] was > 100 µM. The TGI [25] was > 100 µM, the TGI [26] was > 100 µM and the TGI [27] was > 100 µM. For the same compound, the TGI [28] was > 100 µM, the TGI [29] was > 100 µM and the TGI [30] was > 100 µM. For the same compound, the TGI [31] was > 100 µM, the TGI [32] was > 100 µM and the TGI [33] was > 100 µM. For the same compound, the TGI [34] was > 100 µM, the TGI [35] was > 100 µM and the TGI [36] was > 100 µM. The TGI [37] was > 100 µM, the TGI [38] was > 100 µM and the TGI [39] was > 100 µM. The TGI [40] was > 100 µM, the TGI [41] was > 100 µM and the TGI [42] was > 100 µM. The TGI [43] was > 100 µM, the TGI [44] was > 100 µM and the TGI [45] was > 100 µM. For the same compound, the TGI [46] was > 100 µM, the TGI [47] was > 100 µM and the TGI [48] was > 100 µM. The TGI [49] was > 100 µM, the TGI [50] was > 100 µM and the TGI [51] was > 100 µM.
In the case of `CC(=O)[C@H]1[C@@H](OCc2ccccc2)O[N+]([O-])=C(C)[C@@H]1c1ccccc1`, the TGI [1] is reported as > 100 µM, the TGI [52] is reported as > 100 µM and the TGI [2] is reported as 75 µM. For the same compound, the TGI [3] was > 100 µM, the TGI [4] was > 100 µM and the TGI [5] was 72.4 µM. For the same compound, the TGI [6] was > 100 µM, the TGI [7] was > 100 µM and the TGI [53] was > 100 µM. The TGI [8] was > 100 µM, the TGI [9] was > 100 µM and the TGI [54] was > 100 µM. The TGI [10] was 26.4 µM, the TGI [11] was 62.4 µM and the TGI [12] was > 100 µM. For the same compound, the TGI [55] was 58.1 µM, the TGI [13] was 34.2 µM and the TGI [14] was > 100 µM. For the same compound, the TGI [15] was > 100 µM, the TGI [16] was > 100 µM and the TGI [17] was > 100 µM. The TGI [18] was 40.8 µM, the TGI [19] was 31.4 µM and the TGI [20] was > 100 µM. For the same compound, the TGI [21] was > 100 µM, the TGI [22] was > 100 µM and the TGI [23] was > 100 µM. For the same compound, the TGI [24] was > 100 µM, the TGI [25] was > 100 µM and the TGI [26] was > 100 µM. For the same compound, the TGI [27] was > 100 µM, the TGI [28] was > 100 µM and the TGI [29] was 31.7 µM. For the same compound, the TGI [30] was 47 µM, the TGI [31] was > 100 µM and the TGI [32] was 42 µM. For the same compound, the TGI [56] was 45.7 µM, the TGI [33] was > 100 µM and the TGI [34] was > 100 µM. For the same compound, the TGI [36] was > 100 µM, the TGI [37] was 45.5 µM and the TGI [38] was > 100 µM. For the same compound, the TGI [39] was 52 µM, the TGI [40] was 37.9 µM and the TGI [41] was 78.4 µM. For the same compound, the TGI [42] was 98.4 µM, the TGI [43] was 33.8 µM and the TGI [44] was 41.2 µM. For the same compound, the TGI [57] was > 100 µM, the TGI [45] was 38 µM and the TGI [46] was > 100 µM. The TGI [47] was > 100 µM, the TGI [48] was > 100 µM and the TGI [58] was 57.7 µM. For the same compound, the TGI [50] was 40.2 µM and the TGI [51] was 44.1 µM.
In the case of `COc1ccc(N2C(=O)C(C#N)=C(SC)C(C#N)C2=O)cc1` (configuration not stated), the TGI [1] is reported as > 100 µM, the TGI [52] is reported as > 100 µM and the TGI [2] is reported as > 100 µM. For the same compound, the TGI [3] was > 100 µM, the TGI [5] was 89.8 µM and the TGI [6] was > 100 µM. The TGI [7] was > 100 µM, the TGI [53] was > 100 µM and the TGI [8] was > 100 µM. For the same compound, the TGI [9] was > 100 µM, the TGI [54] was > 100 µM and the TGI [10] was > 100 µM. The TGI [11] was > 100 µM, the TGI [12] was > 100 µM and the TGI [59] was > 100 µM. For the same compound, the TGI [13] was > 100 µM, the TGI [14] was > 100 µM and the TGI [15] was > 100 µM. The TGI [16] was > 100 µM, the TGI [17] was > 100 µM and the TGI [19] was > 100 µM. The TGI [20] was > 100 µM, the TGI [21] was > 100 µM and the TGI [22] was > 100 µM. The TGI [23] was > 100 µM, the TGI [24] was > 100 µM and the TGI [25] was > 100 µM. For the same compound, the TGI [26] was > 100 µM, the TGI [27] was > 100 µM and the TGI [28] was > 100 µM. For the same compound, the TGI [29] was > 100 µM, the TGI [30] was > 100 µM and the TGI [31] was > 100 µM. The TGI [56] was > 100 µM, the TGI [33] was > 100 µM and the TGI [34] was > 100 µM. The TGI [35] was > 100 µM, the TGI [36] was > 100 µM and the TGI [37] was > 100 µM. For the same compound, the TGI [38] was > 100 µM, the TGI [39] was > 100 µM and the TGI [41] was > 100 µM. For the same compound, the TGI [43] was > 100 µM, the TGI [44] was > 100 µM and the TGI [45] was > 100 µM. For the same compound, the TGI [46] was > 100 µM, the TGI [47] was > 100 µM and the TGI [48] was > 100 µM. The TGI [49] was > 100 µM and the TGI [51] was > 100 µM.
`Cc1ccc(S(=O)(=O)Nn2c(C)cc3ccc(S(=O)(=O)Nc4ccccc4[N+](=O)[O-])cc3c2=O)cc1` was tested, and the TGI [1] was > 100 µM, the TGI [52] was > 100 µM and the TGI [2] was > 100 µM. For the same compound, the TGI [3] was > 100 µM, the TGI [4] was > 100 µM and the TGI [5] was > 100 µM. For the same compound, the TGI [6] was > 100 µM, the TGI [53] was > 100 µM and the TGI [8] was > 100 µM. The TGI [9] was > 100 µM, the TGI [54] was > 100 µM and the TGI [10] was > 100 µM. The TGI [11] was > 100 µM, the TGI [12] was > 100 µM and the TGI [59] was > 100 µM. The TGI [14] was 44.1 µM, the TGI [15] was > 100 µM and the TGI [16] was > 100 µM. The TGI [17] was > 100 µM, the TGI [18] was > 100 µM and the TGI [19] was > 100 µM. For the same compound, the TGI [20] was > 100 µM, the TGI [22] was > 100 µM and the TGI [23] was > 100 µM. For the same compound, the TGI [24] was > 100 µM, the TGI [25] was > 100 µM and the TGI [26] was > 100 µM. The TGI [27] was > 100 µM, the TGI [28] was > 100 µM and the TGI [29] was > 100 µM. The TGI [30] was > 100 µM, the TGI [31] was > 100 µM and the TGI [32] was > 100 µM. The TGI [56] was > 100 µM, the TGI [33] was > 100 µM and the TGI [34] was > 100 µM. For the same compound, the TGI [35] was > 100 µM, the TGI [36] was > 100 µM and the TGI [37] was > 100 µM. The TGI [38] was > 100 µM, the TGI [39] was > 100 µM and the TGI [40] was > 100 µM. The TGI [41] was > 100 µM, the TGI [42] was > 100 µM and the TGI [43] was > 100 µM. For the same compound, the TGI [44] was > 100 µM, the TGI [57] was > 100 µM and the TGI [45] was > 100 µM. The TGI [46] was > 100 µM, the TGI [47] was > 100 µM and the TGI [48] was > 100 µM. The TGI [49] was > 100 µM, the TGI [58] was > 100 µM and the TGI [50] was > 100 µM. For the same compound, the TGI [51] was > 100 µM.
